In patent publication US5166154A, “Imidazo[1,2-a]piperazines” (Boehringer Ingelheim Pharmaceuticals, Inc., priority 1991, dated 1992):
Read-outs that look alike come from different tables or passages of the source.

Target: T1, Human sputum elastase (HSE) (Homo sapiens, UniProt P08246)
T1 construct: purchased Elastin Products Co., Pacific, Mo; host or cells: human sputum
T1 sequence (P08246 30-247 limits assumed): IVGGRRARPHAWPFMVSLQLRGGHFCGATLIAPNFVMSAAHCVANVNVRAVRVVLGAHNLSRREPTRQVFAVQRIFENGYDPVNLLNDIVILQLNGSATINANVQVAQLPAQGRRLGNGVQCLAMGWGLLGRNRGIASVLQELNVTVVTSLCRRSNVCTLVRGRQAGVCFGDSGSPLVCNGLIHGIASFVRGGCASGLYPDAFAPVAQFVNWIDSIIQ
Test: In vitro elastase inhibition, hydrolysis of MeO-Suc-Ala-Ala-Pro-Val-pNA (release of pNA, 405 nm)
Assay type: biochemical
Settings: 5 ug/mL, 0.5 mM substrate, pH 7.5, 15 min pre-incubation
Description: The method of K. Nakajima et al., Journal of Biological Chemistry, 254: 4027-4032 (1979) was adapted to a microtiter format. The in vitro assay is based upon the hydrolysis of the commercially available (Sigma Chemical Company, St. Louis, Mo.) substrate methoxy O-succinyl-L-alanyl-L-alanyl-L-prolyl-L-valine para-nitroanilide (MeO-Suc-Ala-Ala-Pro-Val-pNA) and the release of para-nitroanilide (pNA), which absorbs at 405 nm.
a. Human sputum elastase (HSE) (Elastin Products Co., Pacific, Mo.) dissolved in 1 mg/mL in 0.05M sodium chloride and frozen (50 μL aliquots) at -20° C. until used.
b. Stock solution of MeO-succinyl-L-Alanyl-L-Alanyl-Pro-Val-pNA dissolved at 15 mM in dimethylsulfoxide (DMSO) and frozen (4 mL aliquots) at -20° C. until used.
c. Assay buffer: 0.1M Tris buffer, pH 7.5 containing 0.5M sodium chloride.
Screening is performed in microtiter plates, using 0.5 mM substrate and monitored on a Microtiter Reader. Enzyme activity (+/- test compound) is determined as the rate of pNA release (linear regression analysis of slope). Inhibitory activity of the test compound is calculated relative to the uninhibited enzyme control, as follows: [formula]
A frozen aliquot of HSE is thawed and diluted with assay buffer to a stock concentration of 0.02 mg/mL (30×assay concentration). A frozen aliquot of the substrate stock solution is thawed and diluted to 0.5 mM with the assay buffer (final DMSO concentration is […]). 10 μl of the test compound stock solution (or assay buffer) and 10 μl of the HSE stock solutions are pipetted into each microtiter well, in duplicate. The plate is mixed well, and pre-incubated at room temperature for 15 minutes. A 300 μl substrate solution is then added to each well and the OD405 is followed for approximately 30 minutes.
Further, it is known to those skilled in the art that the biological activities of pharmaceutical agents may be diminished in vitro when human serum albumin (HSA) is added. This is due to the probable binding of compounds to protein. In the case of the present invention, however, the compounds of the present invention are just as active in vitro without or with 0.5% HSA and thus would be expected not to bind to plasma in an in vivo situation or in a diagnostic setting.

[1] = 0% HSA (human serum albumin), read-out: % INHIBITION (5 ug/mL), 0% HSA
[2] = 0.5% HSA (human serum albumin), read-out: % INHIBITION (5 ug/mL), 0.5% HSA

| Structure (SMILES) | inhibition at 5 µg/mL [1] | inhibition at 5 µg/mL [2] |
| --- | --- | --- |
| CC(C)C1N=C2CN(C3Cc4ccccc4C3)C(=O)[C@H](C(C)C)N2C1(O)C(F)(F)F (stereo partly drawn) | 86% | 84.5% |
| CC(C)C1N=C2CN(C3CCCCCCC3)C(=O)[C@H](C(C)C)N2C1(O)C(F)(F)F (stereo partly drawn) | 39.2% | 28% |
| COc1ccc(CCN2CC3=NC(C(C)C)C(O)(C(F)(F)F)N3[C@@H](C(C)C)C2=O)cc1OC (stereo partly drawn) | 47.5% | 58.6% |
